According to patent publication US20100152129A1 (priority 2008, published 2010):

tested on: Panc-1 cell line; test: Gene expression profile using RTQ-PCR; type: cell-based; conditions: Panc1, RTQ-PCR
Description: The objective of the experiment was to evaluate the synergistic effect of drug combination (Gemcitabine with […]) as compared to individual use of the same. The synergistic effect of the compound or drug combination in the Panc-1 cell line was measured in terms of gene expression and expressed as fold changes as compared to the cell control with no drug treatment. Methodology: Cell lines treated with drugs (Gemcitabine, […] or both) were used for total RNA isolation using a commercial RNA extraction kit (Qiagen Corporation, Germany). […] This was followed by real time quantitative polymerase chain reaction (RTQ PCR) using gene specific primers and standard thermal program of initial denaturation at 95° C. for 5 mins and 40 cycles of 95° C. for 10 seconds, followed by […] for 30 seconds (Realplex PCR machine from Eppendorf, Germany). Quantitative measurement of products made during PCR cycles was normalized against a housekeeping gene (Actin) and used to measure the gene expression as fold changes as compared to respective control (FIG. 5).

**Q.** What does the source list for `CC[C@H](CO)Nc1nc(NCc2ccccc2)c2ncn(C(C)C)c2n1` [drawing 2]?
**A.** DLG5 gene expression vs control cells with no drug treatment: −0.71 log 2 fold ratio; E2F1 gene expression vs control cells with no drug treatment: 0.03 log 2 fold ratio; MAPK1 gene expression vs control cells with no drug treatment: −0.29 log 2 fold ratio; PDCD2 gene expression vs control cells with no drug treatment: −0.05 log 2 fold ratio; POLB gene expression vs control cells with no drug treatment: −0.26 log 2 fold ratio; PTK7 gene expression vs control cells with no drug treatment: 0.11 log 2 fold ratio; PTN gene expression vs control cells with no drug treatment: −0.28 log 2 fold ratio; RASA1 gene expression vs control cells with no drug treatment: −0.41 log 2 fold ratio; REV3L gene expression vs control cells with no drug treatment: −0.27 log 2 fold ratio; SSTR2 gene expression vs control cells with no drug treatment: −0.37 log 2 fold ratio; STAT4 gene expression vs control cells with no drug treatment: −1.66 log 2 fold ratio

**Q.** What does the source list for `CN1CC[C@@H](c2c(O)cc(O)c3c(=O)cc(-c4ccc(C(F)(F)F)cc4Cl)oc23)[C@@H]1CO.Cl` [drawing 12]?
**A.** CDK2 gene expression vs control cells with no drug treatment: 0.96 log 2 fold ratio; CDK4 gene expression vs control cells with no drug treatment: 0.73 log 2 fold ratio; CDK6 gene expression vs control cells with no drug treatment: 1.48 log 2 fold ratio; CDK8 gene expression vs control cells with no drug treatment: 0.20 log 2 fold ratio; DDIT4 gene expression vs control cells with no drug treatment: −0.31 log 2 fold ratio; RRM1 gene expression vs control cells with no drug treatment: −0.24 log 2 fold ratio; RRM2 gene expression vs control cells with no drug treatment: 0.04 log 2 fold ratio; p14 gene expression vs control cells with no drug treatment: −0.59 log 2 fold ratio; p18 gene expression vs control cells with no drug treatment: −0.12 log 2 fold ratio; p27 gene expression vs control cells with no drug treatment: −0.30 log 2 fold ratio

**Q.** Which “DLG5 gene expression vs control cells with no drug treatment” value does the source give for `Nc1ccn([C@@H]2O[C@H](CO)[C@@H](O)C2(F)F)c(=O)n1` [drawing 1] here?
**A.** −0.53 log 2 fold ratio

**Q.** What about the “E2F1 gene expression vs control cells with no drug treatment” value of the same molecule?
**A.** 0.98 log 2 fold ratio

**Q.** And the “MAPK1 gene expression vs control cells with no drug treatment” value?
**A.** −0.18 log 2 fold ratio

**Q.** And the “PDCD2 gene expression vs control cells with no drug treatment” value?
**A.** −1.27 log 2 fold ratio

**Q.** What about the “POLB gene expression vs control cells with no drug treatment” value of the same molecule?
**A.** −0.94 log 2 fold ratio

**Q.** And the “PTK7 gene expression vs control cells with no drug treatment” value?
**A.** −0.53 log 2 fold ratio

**Q.** What about the “PTN gene expression vs control cells with no drug treatment” value of the same molecule?
**A.** 0.68 log 2 fold ratio

**Q.** And the “RASA1 gene expression vs control cells with no drug treatment” value?
**A.** −0.04 log 2 fold ratio

**Q.** What about the “REV3L gene expression vs control cells with no drug treatment” value of the same molecule?
**A.** −0.28 log 2 fold ratio

**Q.** And the “SSTR2 gene expression vs control cells with no drug treatment” value?
**A.** −1.17 log 2 fold ratio

**Q.** And the “STAT4 gene expression vs control cells with no drug treatment” value?
**A.** −0.54 log 2 fold ratio

**Q.** Which results are given for `CC[C@H](CO)Nc1nc(NCc2ccccc2)c2ncn(C(C)C)c2n1` [drawing 11]?
**A.** CDK2 gene expression vs control cells with no drug treatment: 0.29 log 2 fold ratio; CDK4 gene expression vs control cells with no drug treatment: −0.06 log 2 fold ratio; CDK6 gene expression vs control cells with no drug treatment: 0.75 log 2 fold ratio; CDK8 gene expression vs control cells with no drug treatment: 0.82 log 2 fold ratio; DDIT4 gene expression vs control cells with no drug treatment: −0.84 log 2 fold ratio; RRM1 gene expression vs control cells with no drug treatment: 0.11 log 2 fold ratio; RRM2 gene expression vs control cells with no drug treatment: 0.63 log 2 fold ratio; p14 gene expression vs control cells with no drug treatment: −0.05 log 2 fold ratio; p18 gene expression vs control cells with no drug treatment: 0.56 log 2 fold ratio; p27 gene expression vs control cells with no drug treatment: −0.04 log 2 fold ratio

**Q.** Which results are given for `CN1CC[C@@H](c2c(O)cc(O)c3c(=O)cc(-c4ccc(C(F)(F)F)cc4Cl)oc23)[C@@H]1CO.Cl` [drawing 3]?
**A.** DLG5 gene expression vs control cells with no drug treatment: −1.01 log 2 fold ratio; E2F1 gene expression vs control cells with no drug treatment: −0.43 log 2 fold ratio; MAPK1 gene expression vs control cells with no drug treatment: 0.64 log 2 fold ratio; PDCD2 gene expression vs control cells with no drug treatment: 0.77 log 2 fold ratio; POLB gene expression vs control cells with no drug treatment: −0.05 log 2 fold ratio; PTK7 gene expression vs control cells with no drug treatment: 0.30 log 2 fold ratio; PTN gene expression vs control cells with no drug treatment: 0.40 log 2 fold ratio; RASA1 gene expression vs control cells with no drug treatment: 0.10 log 2 fold ratio; REV3L gene expression vs control cells with no drug treatment: −0.13 log 2 fold ratio; SSTR2 gene expression vs control cells with no drug treatment: −0.69 log 2 fold ratio; STAT4 gene expression vs control cells with no drug treatment: −1.52 log 2 fold ratio

**Q.** What does the source list for `CN1CCC(c2c(O)cc(O)c3c(=O)cc(-c4ccccc4Cl)oc23)C(O)C1` (stereo not drawn) [drawing 14]?
**A.** CDK2 gene expression vs control cells with no drug treatment: 0.74 log 2 fold ratio; CDK4 gene expression vs control cells with no drug treatment: 0.49 log 2 fold ratio; CDK6 gene expression vs control cells with no drug treatment: 1.31 log 2 fold ratio; CDK8 gene expression vs control cells with no drug treatment: −0.99 log 2 fold ratio; DDIT4 gene expression vs control cells with no drug treatment: −4.21 log 2 fold ratio; RRM1 gene expression vs control cells with no drug treatment: 0.03 log 2 fold ratio; RRM2 gene expression vs control cells with no drug treatment: 0.38 log 2 fold ratio; p14 gene expression vs control cells with no drug treatment: −0.10 log 2 fold ratio; p18 gene expression vs control cells with no drug treatment: −1.14 log 2 fold ratio; p27 gene expression vs control cells with no drug treatment: −0.01 log 2 fold ratio

**Q.** What does the source list for `Nc1ccn([C@@H]2O[C@H](CO)[C@@H](O)C2(F)F)c(=O)n1` [drawing 10]?
**A.** CDK2 gene expression vs control cells with no drug treatment: 0.50 log 2 fold ratio; CDK4 gene expression vs control cells with no drug treatment: −0.93 log 2 fold ratio; CDK6 gene expression vs control cells with no drug treatment: −0.53 log 2 fold ratio; CDK8 gene expression vs control cells with no drug treatment: 0.86 log 2 fold ratio; DDIT4 gene expression vs control cells with no drug treatment: 1.01 log 2 fold ratio; RRM1 gene expression vs control cells with no drug treatment: 0.25 log 2 fold ratio; p14 gene expression vs control cells with no drug treatment: −0.17 log 2 fold ratio; p18 gene expression vs control cells with no drug treatment: 1.06 log 2 fold ratio; p27 gene expression vs control cells with no drug treatment: −0.16 log 2 fold ratio

**Q.** `CN1CCC(c2c(O)cc(O)c3c(=O)cc(-c4ccccc4Cl)oc23)C(O)C1` (stereo not drawn) [drawing 5] was tested. Which “DLG5 gene expression vs control cells with no drug treatment” value did it give?
**A.** −1.19 log 2 fold ratio

**Q.** And the “E2F1 gene expression vs control cells with no drug treatment” value?
**A.** −0.62 log 2 fold ratio

**Q.** And the “MAPK1 gene expression vs control cells with no drug treatment” value?
**A.** −2.31 log 2 fold ratio

**Q.** And the “PDCD2 gene expression vs control cells with no drug treatment” value?
**A.** 0.50 log 2 fold ratio

**Q.** And the “POLB gene expression vs control cells with no drug treatment” value?
**A.** 0.34 log 2 fold ratio

**Q.** What about the “PTK7 gene expression vs control cells with no drug treatment” value of the same molecule?
**A.** 0.16 log 2 fold ratio

**Q.** What about the “PTN gene expression vs control cells with no drug treatment” value of the same molecule?
**A.** −0.24 log 2 fold ratio

**Q.** And the “RASA1 gene expression vs control cells with no drug treatment” value?
**A.** −1.10 log 2 fold ratio

**Q.** What about the “REV3L gene expression vs control cells with no drug treatment” value of the same molecule?
**A.** −1.42 log 2 fold ratio

**Q.** What about the “SSTR2 gene expression vs control cells with no drug treatment” value of the same molecule?
**A.** −2.98 log 2 fold ratio

**Q.** And the “STAT4 gene expression vs control cells with no drug treatment” value?
**A.** −1.39 log 2 fold ratio

**Q.** How did the “CDK2 gene expression vs control cells with no drug treatment” value turn out when `CN1CC[C@@H](c2c(O)cc(O)c3c(=O)cc(-c4ccccc4Cl)oc23)[C@@H]1CO.Cl` was run?
**A.** −0.21 log 2 fold ratio

**Q.** What about the “CDK4 gene expression vs control cells with no drug treatment” value of the same molecule?
**A.** −0.44 log 2 fold ratio

**Q.** And the “CDK6 gene expression vs control cells with no drug treatment” value?
**A.** −0.23 log 2 fold ratio

**Q.** What about the “CDK8 gene expression vs control cells with no drug treatment” value of the same molecule?
**A.** 0.11 log 2 fold ratio

**Q.** And the “DDIT4 gene expression vs control cells with no drug treatment” value?
**A.** −1.88 log 2 fold ratio

**Q.** What about the “RRM1 gene expression vs control cells with no drug treatment” value of the same molecule?
**A.** 0.18 log 2 fold ratio

**Q.** What about the “RRM2 gene expression vs control cells with no drug treatment” value of the same molecule?
**A.** 0.16 log 2 fold ratio

**Q.** What about the “p14 gene expression vs control cells with no drug treatment” value of the same molecule?
**A.** −0.50 log 2 fold ratio

**Q.** What about the “p18 gene expression vs control cells with no drug treatment” value of the same molecule?
**A.** −0.17 log 2 fold ratio

**Q.** What about the “p27 gene expression vs control cells with no drug treatment” value of the same molecule?
**A.** −0.60 log 2 fold ratio
